These results are taken from PubChem BioAssay (NCI).

SMILES strings stand for the structures.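 Assay format: 96-well plates, 48-hour exposure. The concentration for 50% growth inhibition is given as GI50. TGI marks complete inhibition of growth.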 Where only a bound is given, the exact number is not on record here.

Test in all cases: NCI anticancer screen, dose series, 48 h
Test [1] relates to ACHN renal.
The subject of test [2] is DU-145 prostate.
The subject of test [3] is NCI-H460 lung.
The test system of test [4] is NCI-H522 lung.
Test [5] has as its system OVCAR-5 ovarian.
The subject of test [6] is PC-3 prostate.
In test [7] the test system is RXF 393 renal.
The subject of test [8] is SF-295 CNS.
Test [9] deals with LOX IMVI melanoma.
Test [10] has as its system MOLT-4 leukemia.

With `O=CC(O)C(O)C(OC1OC(CO)C(O)C(O)C1O)C(O)CO` (configuration not stated) (tested in a mixture with another compound), the TGI in test [1], in test [2], in [3], in test [4], in [5] and in test [6] was > 100 µM throughout. Further, the TGI in test [7] and in test [8] was > 100 µM throughout.

In the case of `C=C(C)[C@@H]1CC[C@]2(C(=O)n3ccnc3)CC[C@]3(C)[C@H](CC[C@@H]4[C@@]5(C)CCCNC(C)(C)[C@@H]5CC[C@]43C)[C@@H]12`, the GI50 in [2] is 1.78 µM; in test [9], 1.62 µM; in test [3], 1.76 µM; in test [4], 1.91 µM; in test [5] it was 2.25 µM; in test [6] it was 1.29 µM. The GI50 was 1.5 µM in [7] and 1.69 µM in [8]. For the same compound, the TGI in test [2] is 3.61 µM; in test [9], 3.05 µM; in test [3], 3.4 µM; in test [4], 3.71 µM; in test [5] it was 6.4 µM; in test [6] it was 2.67 µM. In addition, the TGI came to 2.92 µM in test [7] and 3.24 µM in test [8].

On to `Cc1cn2c(/C=C3/C(=O)Nc4ccc(C(=O)O)cc43)c(C)nc2s1`, for which the GI50 in [1], in test [2], in test [9], in test [10], in test [3] and in test [4] was > 100 µM each time. Also, the GI50 in [5], in test [6] and in test [8] was > 100 µM each time. In addition, the TGI in test [1], in [2], in [9], in test [10], in test [3] and in test [4] was > 100 µM throughout. Also, the TGI in test [5], in test [6] and in test [8] was > 100 µM in each case.

As to `O=S(=O)(NCCCNc1nccc(-c2c(-c3cccc(F)c3)nc3occn23)n1)c1cccc2ccccc12`, the GI50 in test [1] was 3.64 µM; in test [2], 6.97 µM; in test [9], 4.28 µM; in [10], 3.54 µM; in test [3] it was 4.79 µM; in test [4], 9.17 µM. Also, the results for the GI50 in test [5], in test [6] and in [8] were 9.6 µM, 3.38 µM and 5.5 µM, respectively. Also, the TGI in test [1], in test [2], in test [9], in test [10], in [3] and in [4] was > 100 µM each time. Moreover, the TGI in [5], in test [6] and in test [8] was > 100 µM in each case.

In the case of `O=C(Nc1ccc(Cl)c(C(F)(F)F)c1)C(=O)c1c(O)c2ccccc2oc1=O`, the TGI in test [1], in [9], in [10], in test [3], in [4] and in test [5] was > 100 µM in each case. For the same compound, the TGI in [6], in test [7] and in [8] was > 100 µM in each case.

As to `CCN(CC)C(=O)CCCCCn1c2ccccc2c2c3c(c4c5ccccc5[nH]c4c21)C(=O)N(O)C3=O`, the GI50 in test [2] is 6.5 µM; in [9], 1.13 µM; in [10] it was 2.05 µM; in [3], 3.62 µM; in test [4] it was 1.41 µM; in [5], 31.1 µM. The results for the GI50 in [6], in test [7] and in test [8] were 3.19 µM, 4.01 µM and 6.07 µM, respectively. In addition, the TGI is > 100 µM in test [2]; 2.88 µM in test [9]; 6.13 µM in [10]; 15.4 µM in test [3]; 3.13 µM in [4]; > 100 µM in test [5]. For the same compound, the TGI in test [6] was 52.9 µM; in [7], > 100 µM; in [8] it was 55.7 µM.

Take `COC(=O)[C@]1(C)CCCC2(C)C3=C(CCC21)CC1(CC3)SCCS1` (some centres not stated): the TGI in test [1], in [2], in [10], in test [4] and in test [6] was > 10 µM each time.

`CN(C)CCS(=O)(=O)Nc1cc(-c2ccc3ncnc(Nc4ccc(F)c(Cl)c4)c3c2)cnc1Cl`: the GI50 in test [1] is 0.392 µM; in test [2] it was 0.566 µM; in test [10], 0.257 µM; in [3], 1.04 µM; in test [5] it was 0.268 µM; in test [6], 0.536 µM. The results for the GI50 in test [7] and in [8] were 0.256 µM and 0.515 µM, respectively. Also, the TGI in test [1] was > 100 µM; in test [2] it was > 37.3 µM; in test [10], 0.69 µM; in test [3], > 100 µM; in test [5] it was > 22.8 µM; in test [6], > 100 µM. Besides, the TGI in [7] is 1.22 µM; in test [8], > 100 µM.

On to `COC(=O)c1ccc2c(c1)C(=O)c1c-2n(CCCCl)c(=O)c2cc(OC)c(OC)cc12`, for which the GI50 in [1], in [2], in test [9], in test [3], in test [4] and in test [5] was > 100 µM throughout. Besides, the GI50 in test [6] and in [8] was > 100 µM throughout. Also, the TGI in test [1], in test [2], in test [9], in [3], in test [4] and in [5] was > 100 µM in each case. Moreover, the TGI in test [6] and in test [8] was > 100 µM throughout.

On to `O=C(O)Cn1ccc(=O)c2c([N+](=O)[O-])cccc21`, for which the TGI in [1], in [2], in test [10], in test [3], in [4] and in test [5] was > 100 µM each time. Further, the TGI in test [6] and in test [8] was > 100 µM each time.
